14 compounds from ChEMBL document CHEMBL5291721, “A preclinical secondary pharmacology resource illuminates target-adverse drug reaction associations of marketed drugs” (Nat Commun, 2023) can be followed below.

The target of test [1] is T1, Androgen receptor (Rattus norvegicus, UniProt P15207).
T1 sequence (P15207 whole entry): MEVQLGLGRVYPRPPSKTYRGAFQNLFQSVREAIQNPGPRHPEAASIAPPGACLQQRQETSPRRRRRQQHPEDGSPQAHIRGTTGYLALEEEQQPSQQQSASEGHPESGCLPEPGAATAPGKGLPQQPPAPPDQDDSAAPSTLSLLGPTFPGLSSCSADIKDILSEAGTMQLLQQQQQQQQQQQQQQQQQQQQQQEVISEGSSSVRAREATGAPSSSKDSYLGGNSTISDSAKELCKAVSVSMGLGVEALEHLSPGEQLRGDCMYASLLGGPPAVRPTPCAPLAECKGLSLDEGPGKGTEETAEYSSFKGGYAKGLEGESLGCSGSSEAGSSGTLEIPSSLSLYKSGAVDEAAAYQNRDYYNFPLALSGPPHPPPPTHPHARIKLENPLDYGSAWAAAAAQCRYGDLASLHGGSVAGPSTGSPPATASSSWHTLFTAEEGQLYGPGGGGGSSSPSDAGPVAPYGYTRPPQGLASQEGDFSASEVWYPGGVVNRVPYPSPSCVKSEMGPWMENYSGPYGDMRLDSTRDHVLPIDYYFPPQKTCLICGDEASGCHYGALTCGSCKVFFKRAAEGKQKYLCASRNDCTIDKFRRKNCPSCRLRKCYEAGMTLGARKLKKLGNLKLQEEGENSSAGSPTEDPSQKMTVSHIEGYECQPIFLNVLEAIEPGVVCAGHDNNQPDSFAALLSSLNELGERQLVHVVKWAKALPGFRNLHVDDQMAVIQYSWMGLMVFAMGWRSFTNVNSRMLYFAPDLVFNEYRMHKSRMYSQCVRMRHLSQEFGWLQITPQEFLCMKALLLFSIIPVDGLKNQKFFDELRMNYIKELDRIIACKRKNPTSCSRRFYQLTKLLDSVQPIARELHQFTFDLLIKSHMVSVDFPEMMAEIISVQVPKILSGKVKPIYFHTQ
The test is classed as functional.

The target in test [2] is Muscarinic acetylcholine receptor M3 (Homo sapiens, UniProt P20309).
Sequence of Muscarinic acetylcholine receptor M3 (P20309 whole entry): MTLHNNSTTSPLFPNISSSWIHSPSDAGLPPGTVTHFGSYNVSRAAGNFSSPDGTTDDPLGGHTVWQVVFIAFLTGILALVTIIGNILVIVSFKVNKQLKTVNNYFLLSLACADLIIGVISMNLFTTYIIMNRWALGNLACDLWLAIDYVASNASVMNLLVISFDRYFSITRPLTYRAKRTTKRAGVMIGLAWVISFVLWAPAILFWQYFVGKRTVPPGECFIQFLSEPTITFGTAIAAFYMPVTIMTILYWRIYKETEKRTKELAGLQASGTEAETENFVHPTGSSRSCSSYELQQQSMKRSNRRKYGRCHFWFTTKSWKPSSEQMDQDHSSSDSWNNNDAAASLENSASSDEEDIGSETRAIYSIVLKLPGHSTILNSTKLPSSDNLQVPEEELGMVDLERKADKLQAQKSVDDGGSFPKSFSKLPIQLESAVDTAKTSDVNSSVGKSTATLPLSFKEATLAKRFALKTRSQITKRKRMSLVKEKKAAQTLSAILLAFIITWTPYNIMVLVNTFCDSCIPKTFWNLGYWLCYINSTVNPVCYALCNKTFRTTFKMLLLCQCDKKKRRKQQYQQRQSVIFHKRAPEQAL
Test [3] concerns the target Gamma-aminobutyric acid receptor subunit alpha-1/alpha-2/beta-2/gamma-2 (Homo sapiens, UniProt P14867+P18507+P47869+P47870). The test is classed as functional, cell-based.
For test [4], the target named is T2, Glucocorticoid receptor (Homo sapiens, UniProt P04150).
T2 sequence (P04150 whole entry): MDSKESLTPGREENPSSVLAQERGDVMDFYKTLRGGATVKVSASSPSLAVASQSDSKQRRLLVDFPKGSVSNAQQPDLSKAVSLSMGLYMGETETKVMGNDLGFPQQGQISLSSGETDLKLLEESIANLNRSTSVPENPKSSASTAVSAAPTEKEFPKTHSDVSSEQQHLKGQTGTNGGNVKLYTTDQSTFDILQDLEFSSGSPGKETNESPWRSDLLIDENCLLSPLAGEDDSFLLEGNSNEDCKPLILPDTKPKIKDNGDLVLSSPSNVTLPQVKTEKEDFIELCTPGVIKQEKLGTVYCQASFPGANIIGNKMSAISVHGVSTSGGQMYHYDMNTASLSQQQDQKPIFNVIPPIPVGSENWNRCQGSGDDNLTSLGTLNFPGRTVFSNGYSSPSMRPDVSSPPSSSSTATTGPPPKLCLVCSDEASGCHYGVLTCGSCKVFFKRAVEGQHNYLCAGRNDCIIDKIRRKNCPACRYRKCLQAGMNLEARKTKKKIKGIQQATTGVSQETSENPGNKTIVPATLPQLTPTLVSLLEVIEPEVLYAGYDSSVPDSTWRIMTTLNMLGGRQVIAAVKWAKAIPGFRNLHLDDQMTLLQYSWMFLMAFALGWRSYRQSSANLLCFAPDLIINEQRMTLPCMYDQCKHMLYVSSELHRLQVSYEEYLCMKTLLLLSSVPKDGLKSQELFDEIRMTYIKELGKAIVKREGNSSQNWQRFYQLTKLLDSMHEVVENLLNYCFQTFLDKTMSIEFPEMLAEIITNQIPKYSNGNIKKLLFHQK
The test is classed as functional.

Test [5] addresses T3, 5-hydroxytryptamine receptor 1A (Homo sapiens, UniProt P08908).
T3 sequence (P08908 whole entry): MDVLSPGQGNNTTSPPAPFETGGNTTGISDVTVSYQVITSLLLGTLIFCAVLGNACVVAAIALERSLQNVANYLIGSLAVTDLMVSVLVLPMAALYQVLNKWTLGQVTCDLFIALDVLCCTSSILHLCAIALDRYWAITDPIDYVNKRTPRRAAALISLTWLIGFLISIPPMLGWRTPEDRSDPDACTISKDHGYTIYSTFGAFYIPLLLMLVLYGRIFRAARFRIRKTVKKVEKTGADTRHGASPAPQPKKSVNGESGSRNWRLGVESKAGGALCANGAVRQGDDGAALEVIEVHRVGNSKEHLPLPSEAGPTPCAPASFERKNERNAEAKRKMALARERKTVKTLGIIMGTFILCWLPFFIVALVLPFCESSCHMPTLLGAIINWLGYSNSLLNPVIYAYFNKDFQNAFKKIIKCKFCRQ

For test [6], the target named is Sodium channel protein type 5 subunit alpha (Homo sapiens, UniProt Q14524). The test is classed as functional, cell-based.
Sequence of Sodium channel protein type 5 subunit alpha (Q14524 whole entry): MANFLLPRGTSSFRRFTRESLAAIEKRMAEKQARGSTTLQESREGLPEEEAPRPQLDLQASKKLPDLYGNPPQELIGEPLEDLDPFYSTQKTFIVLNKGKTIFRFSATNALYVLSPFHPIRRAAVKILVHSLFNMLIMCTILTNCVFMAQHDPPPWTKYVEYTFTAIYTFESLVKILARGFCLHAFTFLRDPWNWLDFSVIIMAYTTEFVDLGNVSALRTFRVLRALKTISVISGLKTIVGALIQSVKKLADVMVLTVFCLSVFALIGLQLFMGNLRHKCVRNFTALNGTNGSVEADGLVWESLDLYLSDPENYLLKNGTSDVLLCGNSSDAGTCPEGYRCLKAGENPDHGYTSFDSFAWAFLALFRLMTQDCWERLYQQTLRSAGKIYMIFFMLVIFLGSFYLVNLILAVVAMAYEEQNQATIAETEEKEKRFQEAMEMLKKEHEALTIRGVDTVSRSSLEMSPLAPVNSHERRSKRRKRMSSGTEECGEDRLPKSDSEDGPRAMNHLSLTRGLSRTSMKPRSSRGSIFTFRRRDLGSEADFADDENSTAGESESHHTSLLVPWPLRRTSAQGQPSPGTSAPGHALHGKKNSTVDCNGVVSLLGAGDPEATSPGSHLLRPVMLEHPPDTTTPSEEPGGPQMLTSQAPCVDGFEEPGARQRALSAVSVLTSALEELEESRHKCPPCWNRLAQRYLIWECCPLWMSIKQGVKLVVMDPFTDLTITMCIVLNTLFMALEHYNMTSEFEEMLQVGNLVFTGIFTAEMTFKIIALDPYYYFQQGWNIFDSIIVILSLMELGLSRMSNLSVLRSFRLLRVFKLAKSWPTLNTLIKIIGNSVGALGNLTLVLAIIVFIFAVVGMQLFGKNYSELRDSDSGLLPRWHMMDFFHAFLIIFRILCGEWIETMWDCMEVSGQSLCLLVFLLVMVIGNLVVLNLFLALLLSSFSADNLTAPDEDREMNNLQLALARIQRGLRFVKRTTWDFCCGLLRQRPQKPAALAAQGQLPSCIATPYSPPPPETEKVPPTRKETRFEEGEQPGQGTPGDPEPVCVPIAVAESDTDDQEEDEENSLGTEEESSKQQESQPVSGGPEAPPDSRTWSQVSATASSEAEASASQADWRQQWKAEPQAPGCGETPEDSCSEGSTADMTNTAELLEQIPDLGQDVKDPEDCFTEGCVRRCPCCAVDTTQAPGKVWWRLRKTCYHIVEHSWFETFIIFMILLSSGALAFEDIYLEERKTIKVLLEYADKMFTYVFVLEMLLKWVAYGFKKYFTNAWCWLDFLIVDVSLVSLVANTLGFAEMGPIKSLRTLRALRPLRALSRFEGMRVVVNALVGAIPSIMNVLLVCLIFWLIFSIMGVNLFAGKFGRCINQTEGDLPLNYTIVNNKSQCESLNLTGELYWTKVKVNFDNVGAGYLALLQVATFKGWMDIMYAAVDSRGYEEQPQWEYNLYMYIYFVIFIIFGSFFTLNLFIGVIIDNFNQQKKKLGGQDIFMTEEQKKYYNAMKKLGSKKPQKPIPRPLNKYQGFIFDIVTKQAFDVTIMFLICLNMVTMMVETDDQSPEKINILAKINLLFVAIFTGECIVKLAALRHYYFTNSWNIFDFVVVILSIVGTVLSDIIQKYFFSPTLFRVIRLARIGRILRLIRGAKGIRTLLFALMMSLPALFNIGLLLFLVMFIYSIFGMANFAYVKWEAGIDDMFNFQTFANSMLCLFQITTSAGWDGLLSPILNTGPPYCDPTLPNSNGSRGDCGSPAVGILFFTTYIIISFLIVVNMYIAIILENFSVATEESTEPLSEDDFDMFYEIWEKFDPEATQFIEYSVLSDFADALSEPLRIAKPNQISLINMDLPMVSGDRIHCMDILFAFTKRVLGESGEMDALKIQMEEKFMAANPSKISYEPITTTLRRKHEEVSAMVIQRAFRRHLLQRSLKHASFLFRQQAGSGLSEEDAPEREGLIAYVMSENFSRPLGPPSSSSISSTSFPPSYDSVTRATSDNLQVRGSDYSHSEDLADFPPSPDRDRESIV
Test [7] deals with T4, Corticotropin-releasing factor receptor 1 (Homo sapiens, UniProt P34998).
T4 sequence (P34998 whole entry): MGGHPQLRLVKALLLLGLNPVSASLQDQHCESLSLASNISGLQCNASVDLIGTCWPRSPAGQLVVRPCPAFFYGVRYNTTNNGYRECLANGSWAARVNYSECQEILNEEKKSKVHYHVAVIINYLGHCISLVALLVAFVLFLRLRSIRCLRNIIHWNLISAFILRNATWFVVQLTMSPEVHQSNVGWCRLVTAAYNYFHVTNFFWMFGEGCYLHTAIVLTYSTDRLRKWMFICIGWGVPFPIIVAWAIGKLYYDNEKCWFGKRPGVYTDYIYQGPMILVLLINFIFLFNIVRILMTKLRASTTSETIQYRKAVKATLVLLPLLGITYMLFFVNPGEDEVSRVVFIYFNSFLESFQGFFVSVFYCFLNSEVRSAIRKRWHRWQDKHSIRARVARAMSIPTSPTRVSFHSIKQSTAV

For test [8], the target named is Mu-type opioid receptor (Homo sapiens, UniProt P35372). Nature of the test: biochemical. It is filed as functional.
Sequence of Mu-type opioid receptor (P35372 whole entry): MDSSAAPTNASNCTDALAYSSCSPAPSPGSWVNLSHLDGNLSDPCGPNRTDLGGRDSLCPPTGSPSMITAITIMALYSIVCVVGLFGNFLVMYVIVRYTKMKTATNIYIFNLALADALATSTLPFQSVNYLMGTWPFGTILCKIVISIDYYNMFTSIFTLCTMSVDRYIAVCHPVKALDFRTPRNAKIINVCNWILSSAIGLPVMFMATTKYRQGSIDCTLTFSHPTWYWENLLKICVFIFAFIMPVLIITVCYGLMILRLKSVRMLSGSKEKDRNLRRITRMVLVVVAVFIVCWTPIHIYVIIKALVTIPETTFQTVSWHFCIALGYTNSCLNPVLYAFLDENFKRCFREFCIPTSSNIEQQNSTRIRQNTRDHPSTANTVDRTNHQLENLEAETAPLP

Where only a bound is given, the exact number is not on record here.
Note: assay procedure not described here.

Sequence of Gamma-aminobutyric acid receptor subunit alpha-1/alpha-2/beta-2/gamma-2 (P14867 whole entry): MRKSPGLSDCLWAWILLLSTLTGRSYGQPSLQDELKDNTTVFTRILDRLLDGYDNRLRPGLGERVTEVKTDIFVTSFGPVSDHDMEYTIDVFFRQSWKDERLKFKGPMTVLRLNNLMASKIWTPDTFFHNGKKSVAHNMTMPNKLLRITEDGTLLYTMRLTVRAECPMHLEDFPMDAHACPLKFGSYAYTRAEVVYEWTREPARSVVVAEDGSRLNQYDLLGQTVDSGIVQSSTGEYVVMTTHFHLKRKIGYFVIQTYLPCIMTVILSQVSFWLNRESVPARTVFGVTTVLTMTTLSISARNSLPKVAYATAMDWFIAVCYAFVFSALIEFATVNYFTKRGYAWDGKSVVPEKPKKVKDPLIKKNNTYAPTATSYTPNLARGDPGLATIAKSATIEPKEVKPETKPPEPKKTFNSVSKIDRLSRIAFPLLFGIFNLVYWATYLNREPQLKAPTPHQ
Sequence of Gamma-aminobutyric acid receptor subunit alpha-1/alpha-2/beta-2/gamma-2 (P47870 whole entry): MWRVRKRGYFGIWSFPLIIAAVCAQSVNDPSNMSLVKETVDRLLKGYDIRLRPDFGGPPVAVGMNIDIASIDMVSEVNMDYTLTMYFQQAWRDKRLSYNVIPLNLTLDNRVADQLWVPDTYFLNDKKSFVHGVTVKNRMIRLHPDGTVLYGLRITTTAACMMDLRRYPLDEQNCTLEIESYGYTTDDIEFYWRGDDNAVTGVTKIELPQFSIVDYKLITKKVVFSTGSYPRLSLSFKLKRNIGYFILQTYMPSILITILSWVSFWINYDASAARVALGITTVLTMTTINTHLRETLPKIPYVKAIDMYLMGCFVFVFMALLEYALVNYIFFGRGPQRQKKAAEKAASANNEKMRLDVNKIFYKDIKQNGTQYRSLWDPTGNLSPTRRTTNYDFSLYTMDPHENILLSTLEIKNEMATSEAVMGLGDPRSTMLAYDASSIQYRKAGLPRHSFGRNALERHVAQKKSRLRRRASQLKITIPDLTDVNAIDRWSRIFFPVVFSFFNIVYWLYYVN
Sequence of Gamma-aminobutyric acid receptor subunit alpha-1/alpha-2/beta-2/gamma-2 (P18507 whole entry): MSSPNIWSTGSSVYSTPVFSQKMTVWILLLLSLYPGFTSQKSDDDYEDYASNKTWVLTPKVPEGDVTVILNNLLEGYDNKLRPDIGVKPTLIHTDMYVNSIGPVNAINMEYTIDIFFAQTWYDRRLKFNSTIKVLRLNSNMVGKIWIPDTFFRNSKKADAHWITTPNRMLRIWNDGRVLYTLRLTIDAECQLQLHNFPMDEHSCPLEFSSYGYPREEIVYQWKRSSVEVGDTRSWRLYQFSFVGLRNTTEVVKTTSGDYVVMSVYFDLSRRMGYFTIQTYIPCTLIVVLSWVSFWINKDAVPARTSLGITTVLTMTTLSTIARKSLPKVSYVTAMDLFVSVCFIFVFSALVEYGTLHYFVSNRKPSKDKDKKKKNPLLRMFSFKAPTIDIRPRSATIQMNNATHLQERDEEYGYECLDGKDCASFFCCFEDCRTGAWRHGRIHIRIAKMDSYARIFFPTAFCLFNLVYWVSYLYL
Sequence of Gamma-aminobutyric acid receptor subunit alpha-1/alpha-2/beta-2/gamma-2 (P47869 whole entry): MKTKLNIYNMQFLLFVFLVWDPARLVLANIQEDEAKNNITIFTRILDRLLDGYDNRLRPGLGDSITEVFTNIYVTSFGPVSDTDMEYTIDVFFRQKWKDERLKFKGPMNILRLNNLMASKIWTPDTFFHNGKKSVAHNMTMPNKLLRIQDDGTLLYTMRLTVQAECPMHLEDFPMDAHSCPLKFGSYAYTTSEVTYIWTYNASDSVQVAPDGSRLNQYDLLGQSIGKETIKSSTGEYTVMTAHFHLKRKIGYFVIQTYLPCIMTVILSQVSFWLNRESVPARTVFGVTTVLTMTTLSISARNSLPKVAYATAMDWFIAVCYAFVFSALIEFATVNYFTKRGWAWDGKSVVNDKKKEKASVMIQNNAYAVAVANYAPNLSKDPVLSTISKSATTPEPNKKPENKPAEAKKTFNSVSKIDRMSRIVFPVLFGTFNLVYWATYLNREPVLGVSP

Turning to `CC(=N)N1CC[C@H](SC2=C(C(=O)O)N3C(=O)[C@H]([C@@H](C)O)[C@H]3C2)C1`, the AC50 is above 300 µM in test [1], 290 µM in test [2], above 800 µM in test [3] and above 300 µM in test [4].
`CCc1oc2ccccc2c1C(=O)c1cc(Br)c(O)c(Br)c1` [BENZBROMARONE]: the AC50 in test [1] is above 30 µM; in test [3] it was above 30 µM; in test [4], above 30 µM; in test [5], above 10 µM.
Turning to `C=C(C)[C@@H]1CCC(C)=C[C@H]1c1c(O)cc(CCCCC)cc1O` [CANNABIDIOL], the AC50 in test [1] is above 30 µM; in test [2] it was above 30 µM; in test [4], above 30 µM; in test [6], above 10 µM.
Take `COC(=O)[C@H](c1ccccc1Cl)N1CCc2sccc2C1` [CLOPIDOGREL]: the AC50 in test [7] was above 30 µM; in test [3], above 30 µM; in test [4], above 30 µM; in test [8], above 30 µM; in test [5] it was above 10 µM.
As for `C#Cc1cccc(Nc2ncnc3cc(OCCOC)c(OCCOC)cc23)c1` [ERLOTINIB], the AC50 in test [2], in test [3] and in test [4] was above 30 µM each time.
`CC1(C)O[C@@H]2C[C@H]3[C@@H]4C[C@H](F)C5=CC(=O)C=C[C@]5(C)[C@H]4[C@@H](O)C[C@]3(C)[C@]2(C(=O)CO)O1` [FLUNISOLIDE]: the AC50 in test [3] was above 30 µM; in test [4] it was 0.021 µM.
With `C[C@H]1Oc2cc(cnc2N)-c2c(nn(C)c2C#N)CN(C)C(=O)c2ccc(F)cc21` [LORLATINIB], the AC50 in test [1], in test [2], in test [3], in test [4] and in test [6] was above 30 µM in each case.
`O=C1NC(=O)C(c2ccccc2)(c2ccccc2)N1` [PHENYTOIN]: the half-maximal activity concentration (AC50) is above 30 µM in test [7], above 30 µM in test [4], above 50 µM in test [6] and above 10 µM in test [5].
Consider `CC(C)C[C@H](CN)CC(=O)O` [PREGABALIN], for which the AC50 in test [2] was above 30 µM; in test [7] it was above 30 µM; in test [3] it was above 30 µM; in test [4] it was above 30 µM; in test [8], above 30 µM; in test [5], above 10 µM.
For `CCOc1cc(CC(=O)N[C@@H](CC(C)C)c2ccccc2N2CCCCC2)ccc1C(=O)O` [REPAGLINIDE], the AC50 in test [1], in test [2], in test [3] and in test [4] was above 30 µM in each case.
In the case of `CCCN(CCC)CCc1cccc2c1CC(=O)N2` [ROPINIROLE], the half-maximal activity concentration (AC50) in test [2] was above 30 µM; in test [7], above 30 µM; in test [3] it was above 30 µM; in test [4], above 30 µM; in test [8], above 30 µM; in test [5] it was 8.15 µM.
`CCCN(CCc1cccs1)[C@H]1CCc2c(O)cccc2C1` [ROTIGOTINE]: the AC50 in test [1], in test [2], in test [3] and in test [4] was above 30 µM in each case.
Take `CC[C@H]1OC(=O)[C@H](C)[C@@H](O[C@H]2C[C@@](C)(OC)[C@@H](O)[C@H](C)O2)[C@H](C)[C@@H](O[C@@H]2O[C@H](C)C[C@H](N(C)C)[C@H]2O)[C@](C)(O)C[C@@H](C)/C(=N\OCOCCOC)[C@H](C)[C@@H](O)[C@]1(C)O` [ROXITHROMYCIN]: the AC50 in test [3] and in test [4] was above 30 µM each time.
In the case of `CC(=O)S[C@@H]1CC2=CC(=O)CC[C@]2(C)[C@H]2CC[C@@]3(C)[C@@H](CC[C@@]34CCC(=O)O4)[C@H]12` [SPIRONOLACTONE], the AC50 in test [7] was above 30 µM; in test [3], above 30 µM; in test [4], 5.5 µM; in test [5], above 10 µM.

The term AC50 denotes the concentration at which the activity in the assay is half-maximal. A high value points to activity only at high concentration.
